Here are results for 14 compounds from US20230357179A1, “RAF KINASE INHIBITORS AND METHODS OF USE THEREOF” (Deciphera Pharmaceuticals, LLC, priority 2021, published 2023).

pIC50: −log10 of the molar value.

The first experiment relates to WM3928 cells. Description: WM3928 cell proliferation assay (1), resazurin, 96-well. Conditions: inhibition of cell proliferation. It is filed as cell-based. How it is done: WM3928 Cell Proliferation Assay (1)
WM3928 cells (#WM3928-01-0001) are obtained from Rockland Immunochemicals Inc (Gilbertsville, PA). Briefly, cells were grown in MCDB 153 medium (Sigma, #M7403, St. Louis, MO) supplemented with 20% Leibovitz's L-15 (ThermoFisher #11415-064, Waltham, MA), 2% heat inactivated fetal bovine serum (ThermoFisher, #A3840001, Waltham, MA), 5 μg/mL Insulin (Bovine Pancreas) (Sigma, #I0516, St. Louis, MO), 1.68 mM Calcium Chloride (Sigma, #C-34006, St. Louis, MO) and 1% Penicillin/Streptomycin/L-Glutamine (ThermoFisher #10378016, Waltham, MA) at 37° C., 5% CO2, and 95% humidity. Cells are expanded until reaching 70-95% confluency at which point they are subcultured or harvested for assay use. A serial dilution of test compound is dispensed into a 96-well black clear bottom plate in triplicate. Three thousand cells are added per well in 200 μL complete growth medium in the 96-well plate. Plates are incubated for 67-72 hours at 37° C., 5% CO2, and 95% humidity. At the end of the incubation, 40 μL of a 440 μM solution of resazurin (Sigma, #199303, St. Louis, MO) in PBS is added to each well of the plate and plates are incubated for an additional 6-7 hours at 37° C., 5% CO2, and 95% humidity. Plates are read on a Synergy2 or equivalent reader (Biotek, Winooski VT) using an excitation of 540 nm and an emission of 600 nm. Data is analyzed using Prism software (GraphPad, San Diego, CA) to calculate IC50 values.
Turning to `Cc1cc(F)c(NC(=O)NCCC(C)C)cc1-c1cc(OCCO)nc(-c2ccnc(NC(=O)C3CC3)c2)c1` [Example 106], the pIC50 was at least 7.00.
Still for that read-out and setting: then `Cc1ncc(NC(=O)NCCC2(C)CC2)cc1-c1ccnc(-c2ccnc(NC(=O)C3CC3)c2)n1` [Example 107], with 6.30 to 7.00; and `COC(C)(C)CCNC(=O)Nc1cc(-c2ccnc(-c3ccnc(NC(=O)C4CC4)c3)n2)c(C)cc1F` [Example 108], with 6.30 to 7.00.
Still for that read-out and setting: then `COC(=O)Nc1cc(-c2cc(-c3cc(NC(=O)NCCC(C)(C)C)cnc3C)ccn2)ccn1` [Example 109], with 6.30 to 7.00.
On the same count and under the same terms, then `Cc1cc(F)c(NC(=O)NCCC2(C)COC2)cc1-c1cc(OCCO)nc(-c2ccnc3[nH]ncc23)c1` [Example 110], with 5.00 to 6.00; and `Cc1cc(F)c(NC(=O)NCC23CC(F)(C2)C3)cc1-c1cc(OCCO)nc(-c2ccnc3[nH]ncc23)c1` [Example 111], with 5.00 to 6.00; and `Cc1ncc(NC(=O)NCCC2(C)CC2)cc1-c1cc(OCCO)nc(-c2ccnc3c2CC(=O)N3)c1` [Example 112], with 5.00 to 6.00.
Take `Cc1ncc(NC(=O)NCCC2(C)CC2)cc1-c1cc(OCCO)nc(-c2ccnc(NC(=O)C3CC3)c2)c1` [Example 113]: the pIC50 is at least 7.00.
Consider `Cc1cc(F)c(NC(=O)NCCC(C)(C)F)cc1-c1nccc(-c2ccnc(NC(=O)C3CC3)c2)n1` [Example 114], for which the pIC50 was 6.00 to 6.30.
Same read-out and setting: for `COC(=O)Nc1cc(-c2cc(-c3cc(NC(=O)NCCC(C)C)c(F)cc3C)cc(OCCO)n2)ccn1` [Example 115] the value was at least 7.00; for `CNC(=O)c1cc(-c2cnnc(-c3cc(NC(=O)NCCC(C)(C)C)c(F)cc3C)c2)ccn1` [Example 119], 5.00 to 6.00.
Regarding `Cc1ncc(NC(=O)NCCC(C)(C)C)cc1-c1cc(-c2ccnc(NC(=O)C3CC3)c2)cnn1` [Example 120], the pIC50 is 5.00 to 6.00.
The same measure, in the same setting: for `Cc1ncc(NC(=O)NC2CC(C)(C)C2)cc1-c1cc(OCCO)nc(-c2ccnc(NC(=O)C3CC3)c2)n1` [Example 144] the value was 6.00 to 6.30; for `COC(=O)Nc1cc(-c2nc(OCCO)cc(-c3cc(NC(=O)NC4CC(C)(C)C4)c(F)cc3C)n2)ccn1` [Example 158], at least 7.00.

The target of a further experiment is T1, C-Raf kinase (Homo sapiens, UniProt P04049, Y340D/Y341D).
T1 construct: Y340D,; GST (N); purchased Sigma
T1 sequence (P04049 307-648 Y340D/Y341D): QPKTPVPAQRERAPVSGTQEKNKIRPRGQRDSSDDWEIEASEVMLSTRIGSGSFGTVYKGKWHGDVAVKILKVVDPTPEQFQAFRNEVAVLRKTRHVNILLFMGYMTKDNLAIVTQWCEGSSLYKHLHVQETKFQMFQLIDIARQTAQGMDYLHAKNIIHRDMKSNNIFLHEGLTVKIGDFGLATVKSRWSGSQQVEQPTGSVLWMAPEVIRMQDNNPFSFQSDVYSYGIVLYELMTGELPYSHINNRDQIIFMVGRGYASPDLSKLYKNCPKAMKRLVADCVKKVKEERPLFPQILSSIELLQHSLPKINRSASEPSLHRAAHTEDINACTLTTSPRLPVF
Description: Biochemical assay for C-Raf.1 (coupled pyruvate kinase/lactate dehydrogenase). To be noted: read-out: CRAF.1 IC50. In short, it runs like this: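 C-Raf (0.43 nM) with MEK 30.1 nM and 1 mM ATP in Tris pH 7.5/MgCl2 buffer, activity coupled via PK/LDH to NADH oxidation (A340), 6 h at 30° C. Rates from 4–5 h window converted to % inhibition versus controls; IC50 by four-parameter fit, 1% DMSO.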
With `Cc1cc(F)c(NC(=O)NCCC(C)C)cc1-c1cc(OCCO)nc(-c2ccnc(NC(=O)C3CC3)c2)c1` [Example 106], the pIC50 is at least 7.00.
In the case of `Cc1ncc(NC(=O)NCCC2(C)CC2)cc1-c1ccnc(-c2ccnc(NC(=O)C3CC3)c2)n1` [Example 107], the pIC50 was at least 7.00.
`COC(C)(C)CCNC(=O)Nc1cc(-c2ccnc(-c3ccnc(NC(=O)C4CC4)c3)n2)c(C)cc1F` [Example 108]: the pIC50 was at least 7.00.
On the same count and under the same terms, then `COC(=O)Nc1cc(-c2cc(-c3cc(NC(=O)NCCC(C)(C)C)cnc3C)ccn2)ccn1` [Example 109], with at least 7.00; and `Cc1cc(F)c(NC(=O)NCCC2(C)COC2)cc1-c1cc(OCCO)nc(-c2ccnc3[nH]ncc23)c1` [Example 110], with 6.30 to 7.00.
In the case of `Cc1cc(F)c(NC(=O)NCC23CC(F)(C2)C3)cc1-c1cc(OCCO)nc(-c2ccnc3[nH]ncc23)c1` [Example 111], the pIC50 is at least 7.00.
`Cc1ncc(NC(=O)NCCC2(C)CC2)cc1-c1cc(OCCO)nc(-c2ccnc3c2CC(=O)N3)c1` [Example 112]: the pIC50 was at least 7.00.
For `Cc1ncc(NC(=O)NCCC2(C)CC2)cc1-c1cc(OCCO)nc(-c2ccnc(NC(=O)C3CC3)c2)c1` [Example 113], the pIC50 was at least 7.00.
On the same count and under the same terms, for `Cc1cc(F)c(NC(=O)NCCC(C)(C)F)cc1-c1nccc(-c2ccnc(NC(=O)C3CC3)c2)n1` [Example 114] the value was at least 7.00; for `COC(=O)Nc1cc(-c2cc(-c3cc(NC(=O)NCCC(C)C)c(F)cc3C)cc(OCCO)n2)ccn1` [Example 115], at least 7.00; for `CNC(=O)c1cc(-c2cnnc(-c3cc(NC(=O)NCCC(C)(C)C)c(F)cc3C)c2)ccn1` [Example 119], 6.30 to 7.00.
Still for that read-out and setting: for `Cc1ncc(NC(=O)NCCC(C)(C)C)cc1-c1cc(-c2ccnc(NC(=O)C3CC3)c2)cnn1` [Example 120] the value was at least 7.00.
Same read-out and setting: then `Cc1ncc(NC(=O)NC2CC(C)(C)C2)cc1-c1cc(OCCO)nc(-c2ccnc(NC(=O)C3CC3)c2)n1` [Example 144], with at least 7.00.
As for `COC(=O)Nc1cc(-c2nc(OCCO)cc(-c3cc(NC(=O)NC4CC(C)(C)C4)c(F)cc3C)n2)ccn1` [Example 158], the pIC50 is at least 7.00.

The test system of the next experiment is Miapaca-2 cells. Description: MiaPaca-2 cell proliferation assay (1), resazurin, 96-well. Format: cell-based. Conditions: Homo sapiens, MIA PaCa-2, inhibition of cell proliferation. In short, it runs like this:
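Three thousand cells per well in DMEM with 10% FBS and 2.5% horse serum exposed to serially diluted compound in triplicate for 67-72 h at 37 °C, 5% CO2. Viability by resazurin (additional 5-6 h), fluorescence ex 540/em 600 nm; IC50 calculated.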
On the technique in general: Resazurin is reduced to fluorescent resorufin, in cell work by metabolically active cells.
With `Cc1cc(F)c(NC(=O)NCCC(C)C)cc1-c1cc(OCCO)nc(-c2ccnc(NC(=O)C3CC3)c2)c1` [Example 106], the pIC50 is 5.00 to 6.00.
In the case of `Cc1ncc(NC(=O)NCCC2(C)CC2)cc1-c1ccnc(-c2ccnc(NC(=O)C3CC3)c2)n1` [Example 107], the pIC50 is 5.00 to 6.00.
On the same count and under the same terms, then `COC(C)(C)CCNC(=O)Nc1cc(-c2ccnc(-c3ccnc(NC(=O)C4CC4)c3)n2)c(C)cc1F` [Example 108], with 5.00 to 6.00.
For the compound `COC(=O)Nc1cc(-c2cc(-c3cc(NC(=O)NCCC(C)(C)C)cnc3C)ccn2)ccn1` [Example 109], the pIC50 was 5.00 to 6.00.
Still for that read-out and setting: then `Cc1cc(F)c(NC(=O)NCCC2(C)COC2)cc1-c1cc(OCCO)nc(-c2ccnc3[nH]ncc23)c1` [Example 110], with 5.00 to 6.00; and `Cc1cc(F)c(NC(=O)NCC23CC(F)(C2)C3)cc1-c1cc(OCCO)nc(-c2ccnc3[nH]ncc23)c1` [Example 111], with 5.00 to 6.00.
On the same count and under the same terms, for `Cc1ncc(NC(=O)NCCC2(C)CC2)cc1-c1cc(OCCO)nc(-c2ccnc3c2CC(=O)N3)c1` [Example 112] the value was 5.00 to 6.00; for `Cc1ncc(NC(=O)NCCC2(C)CC2)cc1-c1cc(OCCO)nc(-c2ccnc(NC(=O)C3CC3)c2)c1` [Example 113], 5.00 to 6.00; for `Cc1cc(F)c(NC(=O)NCCC(C)(C)F)cc1-c1nccc(-c2ccnc(NC(=O)C3CC3)c2)n1` [Example 114], 5.00 to 6.00.
The same measure, in the same setting: for `COC(=O)Nc1cc(-c2cc(-c3cc(NC(=O)NCCC(C)C)c(F)cc3C)cc(OCCO)n2)ccn1` [Example 115] the value was 5.00 to 6.00; for `CNC(=O)c1cc(-c2cnnc(-c3cc(NC(=O)NCCC(C)(C)C)c(F)cc3C)c2)ccn1` [Example 119], 5.00 to 6.00; for `Cc1ncc(NC(=O)NCCC(C)(C)C)cc1-c1cc(-c2ccnc(NC(=O)C3CC3)c2)cnn1` [Example 120], 5.00 to 6.00.
Take `Cc1ncc(NC(=O)NC2CC(C)(C)C2)cc1-c1cc(OCCO)nc(-c2ccnc(NC(=O)C3CC3)c2)n1` [Example 144]: the pIC50 was 5.00 to 6.00.
As to `COC(=O)Nc1cc(-c2nc(OCCO)cc(-c3cc(NC(=O)NC4CC(C)(C)C4)c(F)cc3C)n2)ccn1` [Example 158], the pIC50 is 5.00 to 6.00.

For the next experiment, the target named is T2, A-Raf kinase (Homo sapiens, UniProt P10398, Y301D/Y302D).
T2 construct: purchased Sigma
T2 sequence (P10398 with tags, fused parts or gaps Y301D/Y302D): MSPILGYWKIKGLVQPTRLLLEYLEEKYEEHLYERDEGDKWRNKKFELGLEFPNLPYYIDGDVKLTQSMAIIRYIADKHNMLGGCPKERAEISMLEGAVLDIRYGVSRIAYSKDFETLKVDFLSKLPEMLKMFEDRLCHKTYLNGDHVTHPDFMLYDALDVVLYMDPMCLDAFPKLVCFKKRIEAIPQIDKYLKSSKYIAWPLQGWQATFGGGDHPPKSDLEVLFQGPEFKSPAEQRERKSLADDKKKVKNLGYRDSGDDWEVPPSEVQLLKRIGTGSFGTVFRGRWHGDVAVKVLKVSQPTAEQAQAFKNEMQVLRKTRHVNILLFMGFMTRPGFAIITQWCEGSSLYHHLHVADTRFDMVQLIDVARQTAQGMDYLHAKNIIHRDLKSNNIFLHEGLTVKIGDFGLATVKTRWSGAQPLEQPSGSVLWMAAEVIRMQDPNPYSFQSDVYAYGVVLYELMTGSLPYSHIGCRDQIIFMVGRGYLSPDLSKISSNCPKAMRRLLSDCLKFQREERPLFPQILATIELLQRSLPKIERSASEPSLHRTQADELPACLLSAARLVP
As to the kind of experiment: Biochemical assay for A-Raf.1 (coupled pyruvate kinase/lactate dehydrogenase). Conditions: read-out: ARAF.1 IC50. Summed up:
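A-Raf (5.55 nM) phosphorylating 30.1 nM MEK with 1 mM ATP was monitored by pyruvate kinase/lactate dehydrogenase-coupled NADH oxidation at 340 nm for 6 h at 30° C, in pH 7.5 Tris buffer with 15 mM MgCl2, 1% DMSO. Rates from 4–5 h gave percent inhibition; IC50 by four-parameter fit.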
Turning to `Cc1cc(F)c(NC(=O)NCCC(C)C)cc1-c1cc(OCCO)nc(-c2ccnc(NC(=O)C3CC3)c2)c1` [Example 106], the pIC50 was under 6.00.
Still for that read-out and setting: then `Cc1ncc(NC(=O)NCCC2(C)CC2)cc1-c1ccnc(-c2ccnc(NC(=O)C3CC3)c2)n1` [Example 107], with 6.00 to 6.30; and `COC(C)(C)CCNC(=O)Nc1cc(-c2ccnc(-c3ccnc(NC(=O)C4CC4)c3)n2)c(C)cc1F` [Example 108], with 6.30 to 7.00.
The same measure, in the same setting: then `COC(=O)Nc1cc(-c2cc(-c3cc(NC(=O)NCCC(C)(C)C)cnc3C)ccn2)ccn1` [Example 109], with under 6.00.
On to `Cc1cc(F)c(NC(=O)NCCC2(C)COC2)cc1-c1cc(OCCO)nc(-c2ccnc3[nH]ncc23)c1` [Example 110], for which the pIC50 is under 6.00.
For the compound `Cc1cc(F)c(NC(=O)NCC23CC(F)(C2)C3)cc1-c1cc(OCCO)nc(-c2ccnc3[nH]ncc23)c1` [Example 111], the pIC50 was under 6.00.
On the same count and under the same terms, for `Cc1ncc(NC(=O)NCCC2(C)CC2)cc1-c1cc(OCCO)nc(-c2ccnc3c2CC(=O)N3)c1` [Example 112] the value was under 6.00.
Still for that read-out and setting: for `Cc1ncc(NC(=O)NCCC2(C)CC2)cc1-c1cc(OCCO)nc(-c2ccnc(NC(=O)C3CC3)c2)c1` [Example 113] the value was 6.00 to 6.30.
Take `Cc1cc(F)c(NC(=O)NCCC(C)(C)F)cc1-c1nccc(-c2ccnc(NC(=O)C3CC3)c2)n1` [Example 114]: the pIC50 was 6.30 to 7.00.
Same read-out and setting: then `COC(=O)Nc1cc(-c2cc(-c3cc(NC(=O)NCCC(C)C)c(F)cc3C)cc(OCCO)n2)ccn1` [Example 115], with under 6.00.
On the same count and under the same terms, then `CNC(=O)c1cc(-c2cnnc(-c3cc(NC(=O)NCCC(C)(C)C)c(F)cc3C)c2)ccn1` [Example 119], with under 6.00; and `Cc1ncc(NC(=O)NCCC(C)(C)C)cc1-c1cc(-c2ccnc(NC(=O)C3CC3)c2)cnn1` [Example 120], with under 6.00.
Consider `Cc1ncc(NC(=O)NC2CC(C)(C)C2)cc1-c1cc(OCCO)nc(-c2ccnc(NC(=O)C3CC3)c2)n1` [Example 144], for which the pIC50 is under 6.00.
On to `COC(=O)Nc1cc(-c2nc(OCCO)cc(-c3cc(NC(=O)NC4CC(C)(C)C4)c(F)cc3C)n2)ccn1` [Example 158], for which the pIC50 was under 6.00.

Usually pIC50 stands for the negative decadic logarithm of the IC50, by convention in mol/L.
